Laboratory results from US12178838B2, “Synthetic neuromodulatory peptides” (Lactocore, Inc., priority 2019, dated 2024).

Columns and labels:
[1] = target: hippocampal NMDA receptors; assay: Radioligand analysis of NMDA receptors with [3H] (+) MK-801; type: binding, rat; details: [3H] (+) MK-801, room temperature, 2 hours; read-out: IC50 of displacement curve
Excerpt: Hippocampal plasma membranes were isolated using modified methods (Zhou et al. (1997). (2S,4R)-4-methylglutamic acid (SYM 2081): a selective, high-affinity ligand for kainate receptors. J. Pharmacol. Exp. Ther., 280(1), 422-427, LePage et al. (2005). Differential binding properties of [^3H] dextrorphan and [^3H] MK-801 in heterologously expressed NMDA receptors. Neuropharmacol., 49(1), 1-16). After decapitation, the tissue was immediately frozen in liquid nitrogen and stored in a low-temperature refrigerator at −80° C. On the day of the experiment, the hippocampi were homogenized “Teflon-glass” in a Potter homogenizer in 10 volumes of buffer No. 1 (5 mM HEPES, 4.5 mM Tris, 0.32 M Sucrose, pH 7.6). The homogenate was diluted with 50 volumes of buffer No. 2 (5 mM HEPES, 4.5 mM Tris, pH 7.6) and centrifuged at 1000 g for 10 minutes on an Optima L-70K ultracentrifuge (Beckman Coulter). The supernatant was […] and centrifuged again at 25000 g for 20 minutes. To increase the protein yield, this operation was performed twice. The resulting precipitate was resuspended in 50 volumes of buffer No. 2 and centrifuged at 8000 g for 20 minutes. […]
The IC50 value with respect to the binding of labeled ligands was determined by adding 50 μl of the test compounds to the incubation medium at final concentrations of 10^−10-10^−4 M. The volume of the incubation mixture was 500 μl. […]

[2] = tested on: Wistar rats; assay: Learned helplessness model: Open Field test; type: in vivo
Procedure: (§1) Weigh was measured on an analytical balance, with an accuracy of 0.0001 g, the solution was prepared with a margin of 0.5 ml.
(§2) The tetracyclic antidepressant Maprotiline (Lyudiomil), a monoamine reuptake inhibitor, was used as a positive control. Animals received a daily intraperitoneal injection (i.p) of Maprotiline for ten days (M9651, Merck, 4.5 mg/kg, dissolved in saline: 200 μl per administration).
(§3) The state of “learned helplessness” according to modern concepts adequately reflects anxiety-depressive syndrome, reproducing the main signs of a person's endogenous depression, including the severity of effects of helplessness, hopelessness, and characteristic endocrine disorders. To develop LH, rats were subjected to uncontrolled unavoidable aversive stress (electro cutaneous irritation). […] Stimulation was performed automatically using a software randomizer.
The Open Field test is a classic method for assessing the level of motor activity and exploratory behavior of rodents in new stressogenic conditions. […] On the 5th day after stressing in the LH model, the rat was placed in the center of the OF. The following parameters were measured for 5 minutes: latency to start of moving, the number of crossed squares (outside, intermediate and central), the duration of the rears and immobilization time.
(§4) “LH”—a group of animals subjected to stress, in which a depressive state of “learned helplessness” was developed. Pharmacotherapy was not performed in the LH group; the development of experimental depression was studied. […] “LH+Map.”—the comparison drug group. Maprotiline was injected intraperitoneally at a dosage of 4.5 mg/kg ten days daily to develop experimental depression.

[3] = tested on: Wistar rats; assay: Learned helplessness model: Elevated Plus-Maze test; type: in vivo; details: Map 4.5 mg/kg i/p; FQSE 0.5 and 2.5 mg/kg i/n
Procedure: Weigh was measured on an analytical balance, with an accuracy of 0.0001 g, the solution was prepared with a margin of 0.5 ml. For the experiment, a freshly prepared FQSE (SEQ ID NO:10) solution was used; for the second day, this solution was stored in a refrigerator at +4° C. The tetracyclic antidepressant Maprotiline (Lyudiomil), a monoamine reuptake inhibitor, was used as a positive control. […] The classical paradigm of “learned helplessness” (LH) was used as an experimental model of depression ([…] et al. (1975). Learned helplessness in the rat. J. Comp. Physiol. […] The state of “learned helplessness” according to modern concepts adequately reflects anxiety-depressive syndrome, reproducing the main signs of a person's endogenous depression, including the severity of effects of helplessness, hopelessness, and characteristic endocrine disorders. To develop LH, rats were subjected to uncontrolled unavoidable aversive stress (electro cutaneous irritation). […] Stimulation was performed automatically using a software randomizer. […] The time spent by the animal inside and outside the closed arms (in the open arms and in the center), the number of transitions between the arms, the number of stretch-attended postures were evaluated. […]

[4] = tested on: Wistar rats; assay: Learned helplessness model: Porsolt forced swimming test, one-day modification; type: in vivo; details: Maprotiline 4.5 mg/kg i/p; FQSE 0.5 mg/kg i/n
Procedure: as §1, §2, §3, §4

[5] = tested on: corticosterone in rat plasma; assay: Learned helplessness model: plasma corticosterone and dexamethasone test; type: in vivo, rats
Procedure: On the first day of the test (DXMT1) at 10:00 AM, animals were injected intraperitoneally with saline, then at 04:00 PM on the same day peripheral blood samples were taken to determine the basal level of the hormone, which caused stress, and 30 minutes after taking the rat from the cage and receiving initial sample, re-taken blood to measure hormone stress level.
To study the sensitivity of the HPA system to feedback signals, rats were injected with dexamethasone (10 μg/kg, intraperitoneally) the next day (DXMT2) at 10 am. The procedure for taking blood from the tail vein was repeated after 6 and 6.5 hours. The corticosterone content was determined by enzyme-linked immunosorbent assay with reagent kits “Corticosterone-ELISA” (“Hema”, RF) in two parallel samples.
as §4

[6] = tested on: Sprague-Dawley rats; assay: Chronic restraint stress model: Porsolt Forced Swimming test; type: in vivo; details: CRS, FQSE 3 mg/kg intranasal
Procedure: To simulate a depressive state, experimental animals were placed in the individual restrainers (“Open Science”, Russia) for six hours daily for 14 days (hereinafter “chronic restraint stress=CRS”). In order to study the neurotrophic effect of FQSE (SEQ ID NO:10), the animals were divided into 5 groups, 10 individuals each. The groups are as follows: Group 1, control unstressed animals, receiving 10 μl (a pair of 5 μl doses) of saline intranasally; Group 2, stressed animals, receiving 10 pI of saline intranasal (CRS+Veh); Group 3, stressed animals, receiving fluoxetine (FO) at a dose of 5 mg/kg intraperitoneal (CRS+FO, positive control); Group 4, stressed animals, receiving a peptide drug at a dose of 0.3 mg/kg in 10 pI of saline intranasal (CRS+FQSE (SEQ ID NO:10) 0.3); Group 5, stressed animals, receiving a peptide drug at a dose of 3 mg/kg in […] of saline intranasal (CRS+FQSE (SEQ ID NO:10) 3). The administration of drugs was carried out daily, 30 minutes before placing rats in the restrainers. […]
The changes in motor activity and emotional state of animals were evaluated in the Open Field (OFT) and Porsolt Forced Swimming tests (FST) fourteen days after the start of the experiment. […] For three minutes the horizontal and vertical motor activity was measured. The total number of crossed squares, as well as the length of the distance, traveled, and the number of rears was counted. […]

[7] = tested on: BDNF; assay: Western blot of brain homogenates after CRS: BDNF; type: in vivo, rats; details: fluoxetine 5 mg/kg
Procedure: (§5) To simulate a depressive state, experimental animals were placed in the individual restrainers (“Open Science”, Russia) for six hours daily for 14 days (hereinafter “chronic restraint stress=CRS”). […] The administration of drugs was carried out daily, 30 minutes before placing rats in the restrainers.
(§6) At the end of the behavioral examination, the rats were decapitated, and their brains extracted for subsequent western blot analysis. A total of 51 samples of homogenized brain tissue from Sprague-Dawley rats (3-4 months old) were received from the Customer. 25 samples were homogenates of the cerebral cortex, 26 samples were homogenates of the hippocampus isolated from rat brain. The amount of homogenized tissue in each sample was less than 50 mg. […] They were Incubated in ice for 30 minutes. Then the samples were centrifuged at 12000 g, 15 minutes, +4° C.
(§7) All the steps necessary for the analysis of protein levels of BDNF, p-p70S6k (Thr421/Ser424), p-ERK (one and two), (Thr202/Tyr204), p-GSK3β (Ser9), p-PKC (PKCG gamma Thr514) and the GAPDH reference protein were provided in the studied samples using Western blotting. […]
(§8) The integral areas of the spots obtained were calculated as a quantitative assessment and then normalized to the amount of protein in the sample.

[8] = tested on: p-p70S6k (Thr421/Ser424); assay: Western blot of brain homogenates after CRS: p-p70S6k; type: in vivo, rats; details: fluoxetine 5 mg/kg
Procedure: as §5, §6, §7, §8

[9] = tested on: p-ERK 2 (Tyr204); assay: Western blot of brain homogenates after CRS: p-ERK2; type: in vivo, rats; details: fluoxetine 5 mg/kg; FQSE 0.3 mg/kg; against stress and control levels
Procedure: as §5, §6, §7, §8

[10] = tested on: p-PKC (PKC gamma Thr514); assay: Western blot of brain homogenates after CRS: p-PKC; type: in vivo, rats
Procedure: as §5, §6, §7, §8

[11] = tested on: p-GSK3β (Ser9); assay: Western blot of brain homogenates after CRS: p-GSK3β; type: in vivo, rats; details: fluoxetine; FQSE
Procedure: as §5, §6, §7, §8

## C[C@]12N[C@H](Cc3ccccc31)c1ccccc12 [MK-801]
[1]
  IC50: 7 nM

## CNCCCC12CCC(c3ccccc31)c1ccccc12 [Maprotiline]
[2]; FQSE 0.5 mg/kg i/n, Map 4.5 mg/kg i/p
  vertical activity (rears): did not differ
[2]; FQSE 2.5 mg/kg i/n, Maprotiline 4.5 mg/kg i/p, daily, vs LH group
  freezing time when placed in the center of the OF: significant decrease
[2]; Maprotiline 4.5 mg/kg i/p, FQSE 2.5 mg/kg i/n
  decrease in the number of animals showing immobilization after LH: 2.3 fold
[3]
  appearance on the open arms: did not reach statistical significance
[4]
  active swimming time: increase in active swimming time
  time spent immobile: significant reduction
[5]; LH + FQSE 0.5, LH + Map.
  magnitude of suppression—Δ between the Saline and DXM in the stress level of corticosterone: 248.5 nmol/L
[5]; Map 4.5 mg/kg, FQSE 0.5 mg/kg
  suppression of the stress-induced increase in CS in blood after DXM: significant suppression
[5]; Map, FQSE in both doses (0.5, 2.5 mg/kg), vs LH group
  basal level of corticosterone (CS) in plasma: significantly lower level of CS

## CNCCC(Oc1ccc(C(F)(F)F)cc1)c1ccccc1 (stereo not drawn) [fluoxetine]
[6]; FO 5 mg/kg intraperitoneal
  duration of active swimming: no effect
[6]; FO 5 mg/kg, vs CRS+Veh
  time spent passive (inactive) swimming: had no effect
[7]
  levels of BDNF protein in cerebral cortex and hippocampus: showed no relation
[8]
  levels of p-p70S6k in cerebral cortex or hippocampus: showed no relation
[9]
  cortical levels of p-ERK 2 (Tyr204): decreased
[10]; fluoxetine 5 mg/kg, FQSE 0.3 mg/kg
  levels of p-PKC (Thr 514) in the cerebral cortex: showed no changes
[10]; fluoxetine, FQSE
  normalization of p-PKC levels in the hippocampus: neither fluoxetine nor peptide FQSE (SEQ ID NO:10) contributed to the normalization
[11]
  p-GSK3β in the hippocampus: no response
